Bridges are numbered along the chain shown (N, C = ends). Primed or numbered codes have the meaning given here. [ ]: non-standard residue; d: D form. The star is where a group is joined. Arg(NO2) = N=C(NCCC[C@H](N)C(=O)O)N[N+](=O)[O-]; Biotin = O=C1N[C@H]2[C@H](CS[C@H]2CCCCC(=O)*)N1; Lys(Me3) = C[N+](C)(C)CCCC[C@H](N)C(=O)O; Lys(iPr) = CC(C)NCCCC[C@H](N)C(=O)O; Lys(Me2) = CN(C)CCCC[C@H](N)C(=O)O; Cit = NC(=O)NCCC[C@H](N)C(=O)O; Lys(Me) = CNCCCC[C@H](N)C(=O)O; PEG4 = NCCOCCOCCOCCOCCC(=O)O; PEG4″ = 4(ethylene glycol); PEG4′ = not defined here

We go through 13 compounds from US12427212B2, “Nectin-4 binding miniproteins, conjugates and uses thereof” (Aktis Oncology, Inc., priority 2023, dated 2025).

In this experiment the test system is Opossum kidney proximal tubule cells. Nature of the experiment: Proximal tubule epithelial cell uptake assay. Type of experiment: cell-based. The conditions noted are these: for % Uptake of C306: Table 10B, modified lysine miniproteins; for % Uptake of C306 / % Uptake of C306 (Control): relative to control miniprotein C306; for % Uptake of C306 (Control): Table 10A, mean percent uptake in opossum kidney cells. As to the method: FIG. 8 is a bar graph of the percent uptake of exemplary miniproteins tested at 20 µM in a proximal tubule epithelial cell assay vs 20 μM control peptide set at 100%. […]
Opossum kidney proximal tubule cells were plated in the upper chamber of 24-well transwell plates containing 600 μL of growth media in the lower chamber and were incubated overnight at 37° C., in 5% CO2. The following day, the media was changed, and cells were incubated an additional 24 h with orbital shaking at 146 RPM. Next, cells were washed and treated in duplicates with biotinylated exemplary miniproteins pre-complexed with streptavidin-AF647 for 1 h at 37° C., and 5% C02 with continuous orbital shaking. Following incubation, cells were washed three times with 1×PBS and lysed with RIPA buffer containing protease and phosphatase inhibitor cocktail and a universal nuclease for 30 minutes. Uptake was measured on 100 μL of lysates using a fluorimeter. Mean % uptake values of control miniprotein C306 in the presence of exemplary miniproteins are provided in TABLE 10A and summarized in FIG. 8.
Uptake of engineered Nectin-4 miniproteins with further modified lysine residues (C298-C304, as described in Example 4B) was evaluated. Percent uptake of these exemplary Nectin-4-targeting miniproteins and C251 were determined against a control miniprotein, C306, using opossum kidney proximal tubule cells as described in Example 18A. Percent uptake of C298, which has an unmodified lysine (K) at amino acid position 26 (along the length of the miniprotein sequence. SEQ ID NO: 162), was 37% in the presence of […]. All other miniproteins having a modified lysine (modified with one or more small alkyl groups of monomethyl, dimethyl, trimethyl, or isopropyl group) had (i) kidney uptake similar to that of C251 and (ii) reduced uptake as compared to C298, which has an unmodified lysine at position 26.

Where [1] appears, read: opossum kidney proximal tubule cells.

Turning to `CC[C@H](C)[C@@H]1NC(=O)[C@H](Cc2ccc(O)cc2)NC(=O)[C@H](CCC(N)=O)NC(=O)[C@@H]2CSSC[C@@H](C(=O)N[C@@H](CO)C(=O)O)NC(=O)CNC(=O)[C@H](CC(C)C)NC(=O)[C@H](CC(N)=O)NC(=O)[C@H](CC(=O)O)NC(=O)[C@H](CC(C)C)NC(=O)[C@H]([C@@H](C)CC)NC(=O)[C@H](CCC(=O)O)NC(=O)[C@H](CCC(=O)O)NC(=O)[C@H]([C@@H](C)CC)NC(=O)[C@H](CSSC[C@H](NC(=O)CCOCCOCCOCCOCCNC(=O)CCCC[C@@H]3SC[C@@H]4NC(=O)N[C@@H]43)C(=O)N[C@@H](CCC(=O)O)C(=O)N[C@@H](Cc3ccc(O)cc3)C(=O)N[C@@H](CC(=O)O)C(=O)N[C@@H](CCC(=O)O)C(=O)N[C@@H](CCC(=O)O)C(=O)N[C@@H](Cc3ccccc3)C(=O)N[C@@H](Cc3ccccc3)C(=O)N[C@@H]([C@@H](C)O)C(=O)N[C@@H](C)C(=O)N[C@@H](CC(C)C)C(=O)N[C@@H](C)C(=O)N[C@@H](CCCNC(=N)N)C(=O)N[C@@H](CC(C)C)C(=O)N[C@@H](CCCNC(=N)N)C(=O)NCC(=O)NCC(=O)N[C@@H](CC(=O)O)C(=O)N[C@@H]([C@@H](C)CC)C(=O)N2)NC(=O)[C@H](CC(C)C)NC(=O)[C@H](C)NC(=O)[C@@H]2CCCN2C(=O)[C@H](CC(C)C)NC(=O)[C@H](Cc2ccc(O)cc2)NC(=O)[C@H](CCC(N)=O)NC(=O)[C@H](Cc2ccccc2)NC(=O)[C@H](CCCCN)NC(=O)[C@H](C)NC(=O)[C@H](CCC(N)=O)NC1=O` [Compound C298], the “% Uptake of C306” value under setting [1] is reported as 37%. Moreover, the “Percent uptake of control miniprotein C306 in the presence of exemplary miniprotein” value (opossum kidney proximal tubule cells, 1 h at 37° C.) came out at 37%. As to `CC[C@H](C)[C@@H]1NC(=O)[C@H](Cc2ccc(O)cc2)NC(=O)[C@H](CCC(N)=O)NC(=O)[C@@H]2CSSC[C@@H](C(=O)N[C@@H](CO)C(=O)O)NC(=O)CNC(=O)[C@H](CC(C)C)NC(=O)[C@H](CC(N)=O)NC(=O)[C@H](CC(=O)O)NC(=O)[C@H](CC(C)C)NC(=O)[C@H]([C@@H](C)CC)NC(=O)[C@H](CCC(=O)O)NC(=O)[C@H](CCC(=O)O)NC(=O)[C@H]([C@@H](C)CC)NC(=O)[C@H](CSSC[C@H](NC(=O)CCOCCOCCOCCOCCNC(=O)CCCC[C@@H]3SC[C@@H]4NC(=O)N[C@@H]43)C(=O)N[C@@H](CCC(=O)O)C(=O)N[C@@H](Cc3ccc(O)cc3)C(=O)N[C@@H](CC(=O)O)C(=O)N[C@@H](CCC(=O)O)C(=O)N[C@@H](CCC(=O)O)C(=O)N[C@@H](Cc3ccccc3)C(=O)N[C@@H](Cc3ccccc3)C(=O)N[C@@H]([C@@H](C)O)C(=O)N[C@@H](C)C(=O)N[C@@H](CC(C)C)C(=O)N[C@@H](C)C(=O)N[C@@H](CCCNC(=N)N)C(=O)N[C@@H](CC(C)C)C(=O)N[C@@H](CCCNC(=N)N)C(=O)NCC(=O)NCC(=O)N[C@@H](CC(=O)O)C(=O)N[C@@H]([C@@H](C)CC)C(=O)N2)NC(=O)[C@H](CC(C)C)NC(=O)[C@H](C)NC(=O)[C@@H]2CCCN2C(=O)[C@H](CC(C)C)NC(=O)[C@H](Cc2ccc(O)cc2)NC(=O)[C@H](CCC(N)=O)NC(=O)[C@H](Cc2ccccc2)NC(=O)[C@H](CCCCNC)NC(=O)[C@H](C)NC(=O)[C@H](CCC(N)=O)NC1=O` [Compound C299], under setting [1], the “% Uptake of C306” value is 3%. Take `CC[C@H](C)[C@@H]1NC(=O)[C@H](Cc2ccc(O)cc2)NC(=O)[C@H](CCC(N)=O)NC(=O)[C@@H]2CSSC[C@@H](C(=O)N[C@@H](CO)C(=O)O)NC(=O)CNC(=O)[C@H](CC(C)C)NC(=O)[C@H](CC(N)=O)NC(=O)[C@H](CC(=O)O)NC(=O)[C@H](CC(C)C)NC(=O)[C@H]([C@@H](C)CC)NC(=O)[C@H](CCC(=O)O)NC(=O)[C@H](CCC(=O)O)NC(=O)[C@H]([C@@H](C)CC)NC(=O)[C@H](CSSC[C@H](NC(=O)CCOCCOCCOCCOCCNC(=O)CCCC[C@@H]3SC[C@@H]4NC(=O)N[C@@H]43)C(=O)N[C@@H](CCC(=O)O)C(=O)N[C@@H](Cc3ccc(O)cc3)C(=O)N[C@@H](CC(=O)O)C(=O)N[C@@H](CCC(=O)O)C(=O)N[C@@H](CCC(=O)O)C(=O)N[C@@H](Cc3ccccc3)C(=O)N[C@@H](Cc3ccccc3)C(=O)N[C@@H]([C@@H](C)O)C(=O)N[C@@H](C)C(=O)N[C@@H](CC(C)C)C(=O)N[C@@H](C)C(=O)N[C@@H](CCCNC(=N)N)C(=O)N[C@@H](CC(C)C)C(=O)N[C@@H](CCCNC(=N)N)C(=O)NCC(=O)NCC(=O)N[C@@H](CC(=O)O)C(=O)N[C@@H]([C@@H](C)CC)C(=O)N2)NC(=O)[C@H](CC(C)C)NC(=O)[C@H](C)NC(=O)[C@@H]2CCCN2C(=O)[C@H](CC(C)C)NC(=O)[C@H](Cc2ccc(O)cc2)NC(=O)[C@H](CCC(N)=O)NC(=O)[C@H](Cc2ccccc2)NC(=O)[C@H](CCCCN(C)C)NC(=O)[C@H](C)NC(=O)[C@H](CCC(N)=O)NC1=O` [Compound C300]: under setting [1], the “% Uptake of C306” value is listed as 3%. As for `CC[C@H](C)[C@@H]1NC(=O)[C@H](Cc2ccc(O)cc2)NC(=O)[C@H](CCC(N)=O)NC(=O)[C@@H]2CSSC[C@@H](C(=O)N[C@@H](CO)C(=O)O)NC(=O)CNC(=O)[C@H](CC(C)C)NC(=O)[C@H](CC(N)=O)NC(=O)[C@H](CC(=O)O)NC(=O)[C@H](CC(C)C)NC(=O)[C@H]([C@@H](C)CC)NC(=O)[C@H](CCC(=O)O)NC(=O)[C@H](CCC(=O)O)NC(=O)[C@H]([C@@H](C)CC)NC(=O)[C@H](CSSC[C@H](NC(=O)CCOCCOCCOCCOCCNC(=O)CCCC[C@@H]3SC[C@@H]4NC(=O)N[C@@H]43)C(=O)N[C@@H](CCC(=O)O)C(=O)N[C@@H](Cc3ccc(O)cc3)C(=O)N[C@@H](CC(=O)O)C(=O)N[C@@H](CCC(=O)O)C(=O)N[C@@H](CCC(=O)O)C(=O)N[C@@H](Cc3ccccc3)C(=O)N[C@@H](Cc3ccccc3)C(=O)N[C@@H]([C@@H](C)O)C(=O)N[C@@H](C)C(=O)N[C@@H](CC(C)C)C(=O)N[C@@H](C)C(=O)N[C@@H](CCCNC(=N)N)C(=O)N[C@@H](CC(C)C)C(=O)N[C@@H](CCCNC(=N)N)C(=O)NCC(=O)NCC(=O)N[C@@H](CC(=O)O)C(=O)N[C@@H]([C@@H](C)CC)C(=O)N2)NC(=O)[C@H](CC(C)C)NC(=O)[C@H](C)NC(=O)[C@@H]2CCCN2C(=O)[C@H](CC(C)C)NC(=O)[C@H](Cc2ccc(O)cc2)NC(=O)[C@H](CCC(N)=O)NC(=O)[C@H](Cc2ccccc2)NC(=O)[C@H](CCCCNC(C)C)NC(=O)[C@H](C)NC(=O)[C@H](CCC(N)=O)NC1=O` [Compound C301], the “% Uptake of C306” value under setting [1] was 3%. “C257: exemplary Nectin-4 miniprotein compound ({Biotin-PEG4″}-CDYDEQFFTALKRLRGADICEYIQA[Lys(Me3)]FQYLPGECIEEILDNLGCS-OH; disulfide 1-34, 20-44) [Compound C257]”: the “% Uptake of C306 (Control)” value (1 h at 37° C.) is 7.99%. Take “C262: exemplary Nectin-4 miniprotein compound ({Biotin-PEG4″}-CEYDEQFFTALARLRGADICEYIQA[Lys(Me3)]FQYLPGLCIEEILDNLGCS-OH; disulfide 1-34, 20-44) [Compound C262]”: the “% Uptake of C306 (Control)” value (1 h at 37° C.) amounted to 1.27%. “C281 ({Biotin-PEG4′}-CEYDEQFFTALARLRGGDICEYIQA[Cit]FQYLPGLCIEEILDNLGCS-OH; disulfide 1-34, 20-44) [Compound C281]”: for the setting “1 h at 37° C.”, the “% Uptake of C306 (Control)” value is on record as 0.006%. The same measure, in the same setting: to “C282 ({Biotin-PEG4″}-CEYDEQFFTALARLRGGDICEYIQA[Arg(NO2)]FQYLPGLCIEEILDNLGCS-OH; disulfide 1-34, 20-44) [Compound C282]” belongs 2.14 (n = 1) %. Same read-out and setting: to “C306: control miniprotein of the proximal tubule cell uptake assay ({Biotin-PEG4′}-CEYDEEFFTALKRLRGGDICYYIKKKFKKVPKLCIEEILDKLGC-NH2; disulfide 1-34, 20-44) [Compound C306, reference compound]” belongs 100%. In the case of “{Biotin-PEG4}-CEYDEEFFTAL[Lys(Me2)]RLRGGDICQYIQA[Lys(Me3)]FQYLPALCIEEILDNLGCS-OH (disulfide 1-34, 20-44) [Compound C303]”, under setting [1], the “% Uptake of C306” value turned out to be 3%. Turning to “{Biotin-PEG4}-CEYDEEFFTAL[Lys(Me)]RLRGGDICQYIQA[Lys(Me3)]FQYLPALCIEEILDNLGCS-OH (disulfide 1-34, 20-44) [Compound C302]”, under setting [1], the “% Uptake of C306” value amounted to 2%.

For “{Biotin-PEG4}-CEYDEEFFTAL[Lys(iPr)]RLRGGDICQYIQA[Lys(Me3)]FQYLPALCIEEILDNLGCS-OH (disulfide 1-34, 20-44) [Compound C304]”, the “% Uptake of C306” value under setting [1] was found to be 2%. For the compound “{Biotin-PEG4}-CEYDEQFFTALARLRGGDICEYIQARFQYLPGLCIEEILDNLGCS-OH (disulfide 1-34, 20-44) [Compound C264]”, where the note is “1 h at 37° C.”, the “% Uptake of C306 (Control)” value came out at 0.859%.
